Tested on: T. b. brucei TREU 667
Experiment: CNS model, T. b. brucei TREU 667 infection in mice (Table 4)
Assay type: in vivo, Trypanosoma brucei brucei (in Swiss-Webster mice)
Settings: for efficacy in CNS model in words: TREU 667
Text: T. b. brucei EATRO 110 isolate was maintained as described (Bacchi, C. J., H. C. Nathan, S. H. Hutner, P. P. McCann and A. Sjoerdsma; Polyamine metabolism: a potential chemotherapeutic target in trypanosomes. Science 210: 332-334, 1980). It produces an acute, rapidly fatal parasitemia which is lethal to mice 3-5 days after inoculation. Two T. B. brucei strains, TREU 667 and LUMP 1001 developed by Jennings and coworkers (Jennings, F. W., D. D. Whitelaw and G. M. Urquhart; The relationship between duration of infection with Trypanosoma brucei in mice and the efficacy of chemotherapy. Parasitology 75: 143-153, 1977/Jennings, F. W. and G. D. Gray; Relapsed parasitemia following chemotherapy of chronic T. brucei infections in mice and its relation to cerebral trypanosomes; Contr. Microbiol. Immunol. 7 147-154, 1983) were used as CNS models. Both produce infections which are refractory to Berenil® (diminazene aceturate) and develop within 21 days after inoculation. They are not usually fatal until >40 days after inoculation. LUMP 1001 causes a more virulent CNS infection than TREU 667, and is regarded as more difficult to cure (Jennings, F. W. and G. D. Gray. Relapsed parasitemia following chemotherapy of chronic T. brucei infections in mice and its relation to cerebral trypanosomes. Contr. Microbiol. Immunol. 7 147-154, 1983).
The models for […] nervous system infections used TREU 667 and LUMP 1001 strains which were stored frozen and passaged once in rats before infection of mice. Maintenance and use of these screens were as described (Clarkson, A. B. Jr., C. J. Bacchi, G. H. Mellon, H. C. Nathan, P. P. McCann and A. Sjoerdsma. Efficacy of DFMO+blemoycin in a mouse model of central nervous system African trypanosomiasis. Proc. Natl. Acad. Sci. USA. 80: 5729-5733, 1983/Clarkson, A. B. Jr., E. J. Biene, C. J. Bacchi, P. P. McCann, S. H. Hutner and A. Sjoerdsma. New drug combination for experimental late stage African trypanosomiasis: DFMO with suramin. Am. J. Trop. Med. Hyg. 33: 1073-1077, 1984/Dube, D. K., G. Mpimbaza, A. C. Allison, E. Lederer and L. Rovis. Antitrypanosomal activity of sinefungin, Am. J. Trop. Med. Hyg. 32: 31-33, 1983/Fish, W. R., J. J. Marr, R. L. Berens, D. L. Looker, D. J. Nelson, S. LaFon and A. E. Balber. Inosine analogs as chemotherapeutic agents for African trypanosomes: metabolism in trypanosomes and efficacy in tissue culture. Anti-microb. Ag. Chemother. 27: 33-36, 1985/Clazer, R. I., and L. S. Lloyd. Effects of 8-azaadenosine and formycin on cell lethality and the synthesis and methylation of nucleic acids in human colon carcinoma cells in culture. Biochem. Pharmacol. 31: 3207-3214, 1982/Bacchi, C. J., H. C. Nathan, A. B. Clarkson, Jr., E. J. Bienen, A. J. Bitonti, P. P. McCann and A. Sjoerdsma. Activity of the ornithine decarboxylase inhibitors DL-α-difluoromethylornithine and monofluormethyldehydroornithine methylester alone and in combination with suramin against Trypanosoma brucei brucei central nervous system models, Am. J. Trop. Med. Hyg. (in press)). Briefly, groups of 100-120 mice were infected and the infections allowed to develop until day 21, when the animals were separated into groups of 10 and therapy commenced. Controls were treated with Berenil (40 mg/kg) on day 21. These always relapsed 40-70 days after treatment. Parasitemia was followed by examining tail vein blood smears once weekly. Animals which had relapsed were removed from cages. TREU 667 infections were followed >225 days after inoculation and LUMP 1001 were followed >280 days, as determined by the relapse pattern in previous work (Bacchi, C. J., H. C. Nathan, A. B. Clarkson, Jr., E. J. Bienen, A. J. Bitonti, P. P. McCann and A. Sjoerdsma. Activity of the ornithine decarboxylase inhibitors DL-α-difluoromethylornithine and monofluormethyldehydroornithine methylester alone and in combination with suramin against Trypanosoma brucei brucei central nervous system models. Am. J. Trop. Med. Hyg. (in press)). […]

SMILES: O=c1[nH]cnc2c([C@@H]3O[C@H](CO)[C@@H](O)[C@H]3O)c[nH]c12 [9-DINO, 7-beta-D-ribofuranosyl-4-oxo-3H, 5H-pyrrolo (3,2-d) pyrimidine]
- # Cured/Total (5 mg/kg i.p., 7 days): 0/5
- % Cured (5 mg/kg i.p., 7 days): 0%
- Avg. Day of Relapse (Range) (5 mg/kg i.p., 7 days): 41 days
- # Cured/Total (10 mg/kg i.p., 7 days): 0/5
- % Cured (10 mg/kg i.p., 7 days): 0%
- Avg. Day of Relapse (Range) (10 mg/kg i.p., 7 days): 41 days
- # Cured/Total (25 mg/kg i.p., 7 days): 1/5
- % Cured (25 mg/kg i.p., 7 days): 20%
- Avg. Day of Relapse (Range) (25 mg/kg i.p., 7 days): 60 (41-135) Day
- # Cured/Total (100 mg/kg i.p., 7 days): 0/20
- % Cured (100 mg/kg i.p., 7 days): 0%
- Avg. Day of Relapse (Range) (100 mg/kg i.p., 7 days): 49 (35-58) Day
- # Cured/Total (250 mg/kg i.p., 7 days): 3/10
- % Cured (250 mg/kg i.p., 7 days): 30%
- Avg. Day of Relapse (Range) (250 mg/kg i.p., 7 days): 68 (45-86) Day
- efficacy in CNS model in words: did not cure CNS infections

SMILES: Nc1ncnc2c1ncn2[C@@H]1O[C@H](C[C@@H](N)CC[C@H](N)C(=O)O)[C@@H](O)[C@H]1O [Sinefungin, 6,9-Diamino-1-(6-amino-9H-purin-9-yl)-1,5,6,7,8,9-hexadeoxy-beta-D-ribo-decofuranuronic acid]
- # Cured/Total (2.5 mg/kg i.p., 4 days): 0/18
- % Cured (2.5 mg/kg i.p., 4 days): 0%
- Avg. Day of Relapse (Range) (2.5 mg/kg i.p., 4 days): 39 (35-56) Day
- # Cured/Total (5 mg/kg i.p., 4 days): 0/10
- % Cured (5 mg/kg i.p., 4 days): 0%
- Avg. Day of Relapse (Range) (5 mg/kg i.p., 4 days): 41 (35-46) Day
- # Cured/Total (10 mg/kg i.p., 3 days): 0/10
- % Cured (10 mg/kg i.p., 3 days): 0%
- Avg. Day of Relapse (Range) (10 mg/kg i.p., 3 days): 38 (35-46) Day
- # Cured/Total (10 mg/kg i.p., 7 days): 6/10
- % Cured (10 mg/kg i.p., 7 days): 60%
- Avg. Day of Relapse (Range) (10 mg/kg i.p., 7 days): 124 (35-209) Day
- efficacy in CNS model in words: did not produce complete cures

Source: US4914086A, “Method for treating African human and veterinary trypanosomiases” (priority 1987, dated 1990)
